Measured values: ChEMBL document CHEMBL1649450, “In vitro activity of micafungin against planktonic and sessile Candida albicans isolates” (2009)
≈ marks a conversion by molar mass, not a printed value. *1 amine or outer side, *2 acyl side, *3 side chain or, on linkers, in order; H or OH if unused. Where a SMILES comes first, the peptide text is derived from it. Bridges are numbered along the chain shown (N, C = ends). [ ]: non-standard residue; d: D form. The star is where a group is joined. hTyr(3S-OH,4S-OH,3'-OSO3H) = N[C@H](C(=O)O)[C@H](O)[C@@H](O)c1ccc(O)c(OS(=O)(=O)O)c1; pTerphenylCO(4''-OnC5H11) = CCCCCOc1ccc(-c2ccc(-c3ccc(C(=O)*)cc3)cc2)cc1; Orn(4R-OH,5R-OH) = O=C([C@H](C[C@@H](O)[C@@H](O)N[*:3])N[*:1])[*:2]; hTyr(3S-OH,4S-OH) = N[C@H](C(=O)O)[C@H](O)[C@@H](O)c1ccc(O)cc1; Pro(3S-OH,4S-Me) = C[C@H]1CN[C@H](C(=O)O)[C@H]1O; X1 = CCCCCOc1ccc(-c2cc(-c3ccc(C(=O)*)cc3)no2)cc1; Gln(3R-OH) = NC(=O)C[C@@H](O)[C@H](N)C(=O)O; Hyp = O=C(O)[C@@H]1C[C@@H](O)CN1

Columns and labels:
Assay type in all cases: functional
Candida albicans [1] = test: Antimicrobial activity against Candida albicans clinical isolate biofilm by broth microdilution method
Candida albicans [2] = test: Antimicrobial activity against Candida albicans clinical isolate sessile cells by microtiter plated based assay
Candida albicans [3] = test: Antimicrobial activity against Candida albicans GDH 2346 sessile cells by microtiter plated based assay
Candida albicans [4] = test: Antimicrobial activity against Candida albicans GDH 2346 planktonic cells by broth microdilution method
Candida albicans [5] = test: Antimicrobial activity against Candida albicans clinical isolates planktonic cells by broth microdilution method

Compound | MIC90 (Candida albicans [1]) [µg/mL] | MIC50 (Candida albicans [2]) [µg/mL] | MIC90 (Candida albicans [2]) [µg/mL] | MIC (Candida albicans [3]) [µg/mL] | MIC (Candida albicans [4]) [µg/mL] | MIC50 (Candida albicans [5]) [µg/mL] | MIC90 (Candida albicans [5]) [µg/mL]
CCCCCOc1ccc(-c2ccc(-c3ccc(C(=O)N[C@H]4C[C@@H](O)[C@@H](O)NC(=O)[C@@H]5[C@@H](O)[C@@H](C)CN5C(=O)[C@H]([C@@H](C)O)NC(=O)[C@H]([C@H](O)[C@@H](O)c5ccc(O)cc5)NC(=O)[C@@H]5C[C@@H](O)CN5C(=O)[C@H]([C@@H](C)O)NC4=O)cc3)cc2)cc1 [ANIDULAFUNGIN] ({pTerphenylCO(4''-OnC5H11)}-[Orn(4R-OH,5R-OH)]T[Hyp][hTyr(3S-OH,4S-OH)]T[Pro(3S-OH,4S-Me)]; lactam 1-C) | ≤ 0.03 |  |  |  |  |  | 
CC[C@H](C)C[C@H](C)CCCCCCCCC(=O)N[C@H]1C[C@@H](O)[C@@H](NCCN)NC(=O)[C@@H]2[C@@H](O)CCN2C(=O)[C@H]([C@H](O)CCN)NC(=O)[C@H]([C@H](O)[C@@H](O)c2ccc(O)cc2)NC(=O)[C@@H]2C[C@@H](O)CN2C(=O)[C@H]([C@@H](C)O)NC1=O [CASPOFUNGIN] | 2 (≈ 1.83 µM) |  |  |  |  |  | 
CCCCCOc1ccc(-c2cc(-c3ccc(C(=O)N[C@H]4C[C@@H](O)[C@@H](O)NC(=O)[C@@H]5[C@@H](O)[C@@H](C)CN5C(=O)[C@H]([C@H](O)CC(N)=O)NC(=O)[C@H]([C@H](O)[C@@H](O)c5ccc(O)c(OS(=O)(=O)O)c5)NC(=O)[C@@H]5C[C@@H](O)CN5C(=O)[C@H]([C@@H](C)O)NC4=O)cc3)no2)cc1 [MICAFUNGIN] (X1-[Orn(4R-OH,5R-OH)]T[Hyp][hTyr(3S-OH,4S-OH,3'-OSO3H)][Gln(3R-OH)][Pro(3S-OH,4S-Me)]; lactam 1-C) |  | 0.5 (≈ 0.394 µM) | 0.5 (≈ 0.394 µM) | 0.53 (≈ 0.417 µM) | 0.06 (≈ 0.0472 µM) | 0.125 (≈ 0.0984 µM) | 0.125 (≈ 0.0984 µM)
